# In ChEMBL document CHEMBL3885881, “DrugMatrix”:
# Species on record: Rattus norvegicus
# Assay: DrugMatrix - Regimen: Daily Repeat
# Format: toxicity, organism-based, Sprague-Dawley
# Set-up: regimen Daily Repeat, gender Male, age 6-8 weeks
# Settings: in vivo, po, route oral GAVAGE, vehicle 100 % WATER; for ABSOLUTE BASOPHIL / ABSOLUTE EOSINOPHIL / ABSOLUTE LYMPHOCYTE / ABSOLUTE MONOCYTE / ABSOLUTE SEGMENTED NEUTROPHIL / BASOPHIL / EOSINOPHIL / ERYTHROCYTE COUNT / HEMATOCRIT / HEMOGLOBIN / LEUKOCYTE COUNT / LYMPHOCYTE / MEAN CORPUSCULAR HEMOGLOBIN / MEAN CORPUSCULAR HEMOGLOBIN CONCENTRATION / MONOCYTE / NEUTROPHIL / NUCLEATED RED BLOOD CELLS / PLATELET COUNT: tissue Blood; for ALANINE AMINOTRANSFERASE / ALBUMIN / ALKALINE PHOSPHATASE / ASPARTATE AMINOTRANSFERASE / BLOOD UREA NITROGEN / CARBON DIOXIDE / CHLORIDE / CHOLESTEROL / CREATINE PHOSPHOKINASE / CREATININE / GLUCOSE / LACTATE DEHYDROGENASE / LIPASE / PHOSPHORUS / POTASSIUM / SODIUM / TOTAL BILIRUBIN / TOTAL PROTEIN / URIC ACID: tissue Plasma
# [1] = 0 mg/kg, 72 h, dose level Control, time 3 day
# [2] = 0 mg/kg, 120 h, dose level Control, time 5 day
# [3] = 35 mg/kg, 72 h, dose level Low, time 3 day
smiles,measurement,setting,value
Nc1ccn([C@@H]2CS[C@H](CO)O2)c(=O)n1 [LAMIVUDINE],ABSOLUTE BASOPHIL,[1],0 CELLS/uL
same,ABSOLUTE EOSINOPHIL,[1],0 CELLS/uL
same,ABSOLUTE LYMPHOCYTE,[1],8482.5 CELLS/uL
same,ABSOLUTE MONOCYTE,[1],63.83 CELLS/uL
same,ABSOLUTE SEGMENTED NEUTROPHIL,[1],887 CELLS/uL
same,BASOPHIL,[1],0%
same,EOSINOPHIL,[1],0%
same,ERYTHROCYTE COUNT,[1],5.49 x10E6/uL
same,HEMATOCRIT,[1],34.5%
same,HEMOGLOBIN,[1],13.33 G/DL
same,LEUKOCYTE COUNT,[1],9.43 x10E3/uL
same,LYMPHOCYTE,[1],90.17%
same,MEAN CORPUSCULAR HEMOGLOBIN,[1],24.3 pg
same,MEAN CORPUSCULAR HEMOGLOBIN CONCENTRATION,[1],38.63 G/DL
same,MONOCYTE,[1],0.67%
same,NEUTROPHIL,[1],9.17%
same,NUCLEATED RED BLOOD CELLS,[1],0.67 /100WBC
same,PLATELET COUNT,[1],1022.83 x10E3/uL
same,ALANINE AMINOTRANSFERASE,[1],50.5 u/L
same,ALBUMIN,[1],4.08 G/DL
same,ALKALINE PHOSPHATASE,[1],368.33 u/L
same,ASPARTATE AMINOTRANSFERASE,[1],87.5 u/L
same,BLOOD UREA NITROGEN,[1],12.83 mg/dL
same,CARBON DIOXIDE,[1],32.83 mmol/L
same,CHLORIDE,[1],99.67 MEQ/L
same,CHOLESTEROL,[1],79.67 mg/dL
same,CREATINE PHOSPHOKINASE,[1],585 u/L
same,CREATININE,[1],0.22 mg/dL
same,GLUCOSE,[1],135.67 mg/dL
same,LACTATE DEHYDROGENASE,[1],171 u/L
same,LIPASE,[1],9.5 u/L
same,PHOSPHORUS,[1],11.18 mg/dL
same,POTASSIUM,[1],6.25 MEQ/L
same,SODIUM,[1],144.87 MEQ/L
same,TOTAL BILIRUBIN,[1],0.2 mg/dL
same,TOTAL PROTEIN,[1],6.08 G/DL
same,URIC ACID,[1],0.65 mg/dL
same,ABSOLUTE BASOPHIL,[2],0 CELLS/uL
same,ABSOLUTE EOSINOPHIL,[2],14.5 CELLS/uL
same,ABSOLUTE LYMPHOCYTE,[2],7596.17 CELLS/uL
same,ABSOLUTE MONOCYTE,[2],69.67 CELLS/uL
same,ABSOLUTE SEGMENTED NEUTROPHIL,[2],503 CELLS/uL
same,BASOPHIL,[2],0%
same,EOSINOPHIL,[2],0.17%
same,ERYTHROCYTE COUNT,[2],5.49 x10E6/uL
same,HEMATOCRIT,[2],34.72%
same,HEMOGLOBIN,[2],13.47 G/DL
same,LEUKOCYTE COUNT,[2],8.18 x10E3/uL
same,LYMPHOCYTE,[2],92.17%
same,MEAN CORPUSCULAR HEMOGLOBIN,[2],24.57 pg
same,MEAN CORPUSCULAR HEMOGLOBIN CONCENTRATION,[2],38.82 G/DL
same,MONOCYTE,[2],1%
same,NEUTROPHIL,[2],6.67%
same,NUCLEATED RED BLOOD CELLS,[2],0 /100WBC
same,PLATELET COUNT,[2],1141 x10E3/uL
same,ALANINE AMINOTRANSFERASE,[2],48.33 u/L
same,ALBUMIN,[2],4.07 G/DL
same,ALKALINE PHOSPHATASE,[2],395.67 u/L
same,ASPARTATE AMINOTRANSFERASE,[2],85.67 u/L
same,BLOOD UREA NITROGEN,[2],15.83 mg/dL
same,CARBON DIOXIDE,[2],31.33 mmol/L
same,CHLORIDE,[2],100.83 MEQ/L
same,CREATINE PHOSPHOKINASE,[2],248.33 u/L
same,CREATININE,[2],0.2 mg/dL
same,GLUCOSE,[2],135.67 mg/dL
same,LACTATE DEHYDROGENASE,[2],141.33 u/L
same,LIPASE,[2],9.5 u/L
same,PHOSPHORUS,[2],10.73 mg/dL
same,POTASSIUM,[2],6.07 MEQ/L
same,SODIUM,[2],145.35 MEQ/L
same,TOTAL BILIRUBIN,[2],0.22 mg/dL
same,TOTAL PROTEIN,[2],6.12 G/DL
same,URIC ACID,[2],0.63 mg/dL
same,ABSOLUTE BASOPHIL,[3],0 CELLS/uL
same,ABSOLUTE EOSINOPHIL,[3],40.67 CELLS/uL
same,ABSOLUTE LYMPHOCYTE,[3],11136 CELLS/uL
same,ABSOLUTE MONOCYTE,[3],119.67 CELLS/uL
same,ABSOLUTE SEGMENTED NEUTROPHIL,[3],470.33 CELLS/uL
same,BASOPHIL,[3],0%
same,EOSINOPHIL,[3],0.33%
same,ERYTHROCYTE COUNT,[3],5.47 x10E6/uL
same,HEMATOCRIT,[3],34.33%
same,HEMOGLOBIN,[3],13.4 G/DL
same,LEUKOCYTE COUNT,[3],11.77 x10E3/uL
same,LYMPHOCYTE,[3],94.67%
same,MEAN CORPUSCULAR HEMOGLOBIN,[3],24.5 pg
same,MEAN CORPUSCULAR HEMOGLOBIN CONCENTRATION,[3],39.03 G/DL
same,MONOCYTE,[3],1%
same,NEUTROPHIL,[3],4%
same,NUCLEATED RED BLOOD CELLS,[3],0 /100WBC
same,PLATELET COUNT,[3],1274 x10E3/uL
same,ALANINE AMINOTRANSFERASE,[3],51.67 u/L
same,ALBUMIN,[3],4.27 G/DL
same,ALKALINE PHOSPHATASE,[3],390.33 u/L
same,ASPARTATE AMINOTRANSFERASE,[3],80.67 u/L
same,BLOOD UREA NITROGEN,[3],12.33 mg/dL
same,CARBON DIOXIDE,[3],34.33 mmol/L
same,CHLORIDE,[3],98.33 MEQ/L
same,CHOLESTEROL,[3],78 mg/dL
same,CREATINE PHOSPHOKINASE,[3],237.33 u/L
same,CREATININE,[3],0.2 mg/dL
same,GLUCOSE,[3],124.67 mg/dL
same,LACTATE DEHYDROGENASE,[3],167.33 u/L
same,LIPASE,[3],10 u/L
same,PHOSPHORUS,[3],10.9 mg/dL
same,POTASSIUM,[3],6.42 MEQ/L
same,SODIUM,[3],144.2 MEQ/L
same,TOTAL BILIRUBIN,[3],0.13 mg/dL
same,URIC ACID,[3],0.87 mg/dL
